Laboratory results published in patent EP1785417A2, “Novel non-psychotropic cannabinoids” (priority 2000, dated 2001).
Where two headings read alike, the source gives them in different places.

Legend:
PGE2 = experiment: Inhibition of prostaglandin synthesis (PGE2) in LPS-stimulated macrophage cell cultures; assay type: cell-based; conditions: LPS-stimulated macrophages
Description: (§1) Evaluation of the therapeutic effects of the novel PRS-211 compounds has now been carried out in a series of experimental systems to support the utility of these drugs as neuroprotectants, anti-inflammatory agents and anti-oxidative agents. These effects have been evaluated both in vitro and in vivo, and have been corroborated utilizing the following systems: • (a) Binding to the NMDA receptor linked channel: Non competitive antagonists of NMDA, the primary example of which is the compound MK-801, bind to a site within the NMDA receptor channel thus preventing the activation of the receptor-channel complex and the consequent neurotoxicity. The ability of various compounds to compete with the binding of tritium labeled MK-801 to brain membranes is considered a measure of their potency as NMDA non-competitive antagonists. • (b) Inhibition of prostaglandin production: The inhibitory effect of the new derivatives of Dexanabinol on prostaglandin synthesis is evaluated in macrophage cell cultures following LPS exposure to induce the inflammatory response. These assays are an indication of the anti-inflammatory activity of the individual analogs. • (c) Inhibition of Tumor Necrosis Factor Alpha: Specific aspects of the inflammatory response cascade are mediated by the cytokine TNFα. Inhibition of TNFα production and/or inhibition of TNFα release by the new analogs are assayed in macrophage cell cultures activated with LPS. This serves as another indication of the general anti-inflammatory potential of the novel compounds. • (d) Nitric Oxide Assay: As one aspect of the anti-oxidative potential of the novel analogs they were tested for their ability to inhibit the enzyme nitric oxide synthase (NOS). This assay can also serve as another indication of the anti-inflammatory cascade, as well as the anti-oxidative mechanisms. • (e) Ear Edema model: The anti-inflammatory activity of the new analogs is screened using an ear edema model in mice. This test system utilizes Croton oil or Arachidonic acid as inflammation inducers. The ability of the test compounds to prevent or diminish the inflammatory response to these stimulants is indicative of their systemic anti-inflammatory capability. • (f) Improved clinical outcome after closed head injury in rats: Severe head injury is associated with high mortality and severe neurological impairment. Animals subjected to head trauma in a controlled fashion serve as models in which to test drugs of therapeutic potential. Test compounds can be evaluated both for improved clinical outcome and for reduction of edema induced by closed head injury. The ability of compounds to reduce the severity of neurological symptoms and to reduce brain edema is considered a measure of their potency in reducing brain damage. • (g) Transient Middle cerebral artery occlusion (MCAo): The middle cerebral artery is the cerebral blood vessel most susceptible to stroke in humans. In animals, coagulation, permanent ligation or permanent placement of an occluding thread in the artery produces a permanent focal stroke affecting the MCA territory. Transient ligation or occlusion results in transient focal stroke. Both transient and permanent focal strokes result in varying degrees of edema and infarction in the affected brain regions. The ability of compounds to reduce the volumes of edema and infarction is considered a measure of their potential as anti-stroke treatment. • (h) Optic Nerve Crush: Application of mechanical pressure to the rat optical nerve results in crush injury of the axons, which is accompanied by immediate changes in oxidative metabolism and delayed axonal death and blindness. […]

NMDA receptor = experiment: Radioligand binding: displacement of [3H]MK-801 from rat forebrain membranes; conditions: for NMDA receptor binding / affinity: MK-801 binding to membranes
Description: as §1

[1] = Body weight gain during staircase testing after transient MCAo; assay type: in vivo, rats; conditions: compared to base line
Experimental: Animals were allowed to recover from the surgery for five days. The mild food deprivation was re-employed during the days following the ischemic insult. They were tested in the staircase box using the above method for 9-12 days. Animals were weighed twice a week during this period.
Animals were kept under mild food deprivation during the staircase testing (except during weekends). Under these conditions, the following results were observed: • Sham and PRS-211,095 10 mg/kg treated rats gained the maximal body weight (15 and 17% respectively compared to base line). […] These differences were not statistically different.

[2] = even at doses several thousand times higher than the ED50 of HU-210; cited from earlier work
AMPA = experiment: Radioligand binding: inhibition of AMPA binding to membranes; design: species or system rat
kainic acid = experiment: Radioligand binding: inhibition of kainic acid binding to membranes; design: species or system rat
[3] = [3H]MK-801 binding, text to Figure 2, read-out: mean IC50
[4] = displacement of [3H]MK-801, rat forebrain membranes, read-out: NMDA BINDING IC50

| Structure (SMILES) | inhibition at 10 µM (PGE2) [%] | NMDA receptor binding / affinity (NMDA receptor) | IC50 (NMDA receptor; [3]) [µM] | IC50 (NMDA receptor; [4]) [µM] | body weight gain ([1]; 0.5 mg/kg) | body weight gain ([1]; 2.5 mg/kg) | body weight gain ([1]; 5 mg/kg) [%] | body weight gain ([1]; 10 mg/kg) [%] | cannabimimetic activity [2] | inhibition of AMPA binding (AMPA) | inhibition of kainic acid binding (kainic acid) | Ki (NMDA receptor; inhibition of [3H]MK-801 binding, read-out: inhibition constant (KI)) [µM] |
| --- | --- | --- | --- | --- | --- | --- | --- | --- | --- | --- | --- | --- |
| CCCCCCC(C)(C)c1cc(O)c2c(c1)OC(C)(C)[C@H]1CC=C(Cn3ccnc3)C[C@H]21 (single isomer, unassigned) [211,095-000] | 72 | relatively high affinity | 2.5 | 2.5 | did not gain weight | did not gain weight | 4 | 17 |  |  |  |  |
| CCCCCCC(C)(C)c1cc(O)c2c(c1)OC(C)(C)[C@H]1CC=C(CO)C[C@H]21 [211,007-000 HU-211, 1,1 dimethyl heptyl-(3 S,4S)-7-hydroxy-Δ^6-tetrahydrocannabinol, reference compound] | 54 | competes with the binding of MK-801 | 10 | 10 |  |  | 7 |  | inactive | unable to inhibit | unable to inhibit | 11 ± 1.3 |
